# According to EP2298778A1, “IMIDAZOTHIAZOLE DERIVATIVE HAVING 4,7-DIAZASPIROÝ2.5¨OCTANE RING STRUCTURE” (Daiichi Sankyo Company, Limited, priority 2008, dated 2009):
# Experiment: Metabolic stability test (microsomal metabolism test)
# Type: in vitro ADME
# Conditions: pH 7.4; human-derived liver microsomes, test compound remaining after addition of NADP+ and incubation at 37°C for 30 minutes; read-out: metabolic stability of T/C%
# Description: (Test Example 3 Metabolic stability test) 100 µL of 100 mM phosphate buffer solution (pH 7.4) containing 3 µM test compound was added to 100 µL of reaction solution containing 100 mM phosphate buffer solution (pH 7.4), 30 mM glucose 6-phosphate, 10 mM MgCl2·6H2O, 3 units/mL glucose 6-phosphate 1-dehydrogenase, and 0.3 to 1.5 mgP/mL human liver microsomes and the mixture was incubated at 37°C for 20 minutes. Then, 70 µL of 100 mM phosphate buffer solution (pH 7.4) containing 3 mM NADP^+ was added and the mixture was incubated at 37°C for 30 minutes to conduct a microsomal metabolism test. The metabolic stability was calculated according to the following formula: T/C (%) = ((concentration of test compound after addition of NADP)^+and incubation for30minutes)/((concentration of test compound before addition of NADP)^+) × 100. [formula] […]
row,remaining at 0.5 h,SMILES
1,≥ 50%,"CC[C@@H]1CC[C@@H](C(=O)N2C[C@@H](C)NC3(CC3)C2)N1C(=O)C1=C(C(C)C)N2C(=N[C@@](C)(c3ccc(Cl)nc3)[C@H]2c2ccc(Cl)c(F)c2)S1 [Example 55, (5R)-7-[(5R)-1-{[(5R,6S)-5-(4-chloro-3-fluorophenyl)-6-(6-chloropyridin-3-yl)-3-isopropyl-6-methyl-5,6-dihydroimidazo[2,1-b][1,3]thiazol-2-yl]carbonyl}-5-ethyl-L-prolyl]-5-methyl-4,7-diazaspiro[2.5]octane]"
2,≥ 50%,"CC[C@@H]1CC[C@@H](C(=O)N2CC3(CC3)NC[C@@H]2C)N1C(=O)C1=C(C(C)C)N2C(=N[C@@](C)(c3ccc(Cl)nc3)[C@H]2c2ccc(Cl)c(F)c2)S1 [Example 56, (6S)-7-[(5R)-1-{[(5R,6S)-5-(4-chloro-3-fluorophenyl)-6-(6-chloropyridin-3-yl)-3-isopropyl-6-methyl-5,6-dihydroimidazo[2,1-b][1,3]thiazol-2-yl]carbonyl}-5-ethyl-L-prolyl]-6-methyl-4,7-diazaspiro[2.5]octane]"
3,≥ 50%,"CC(C)C1=C(C(=O)N2CCC[C@H]2C(=O)N2CC3(CC3)NC[C@@H]2C)SC2=N[C@@](C)(c3ccc(Cl)nc3)[C@@H](c3ccc(Cl)c(F)c3)N21 [Example 57, (6S)-7-(1-{[(5R,6S)-5-(4-chloro-3-fluorophenyl)-6-(6-chloropyridin-3-yl)-3-isopropyl-6-methyl-5,6-dihydroimidazo[2,1-b][1,3]thiazol-2-yl]carbonyl}-L-prolyl)-6-methyl-4,7-diazaspiro[2.5]octane]"
4,≥ 50%,"CC[C@H]1CNC2(CC2)CN1C(=O)[C@@H]1CC[C@@H](C)N1C(=O)C1=C(C(C)C)N2C(=N[C@@](C)(c3ccc(Cl)nc3)[C@H]2c2ccc(Cl)c(F)c2)S1 [Example 58, (6S)-7-[(5R)-1-{[(5R,6S)-5-(4-chloro-3-fluorophenyl)-6-(6-chloropyridin-3-yl)-3-isopropyl-6-methyl-5,6-dihydroimidazo[2,1-b][1,3]thiazol-2-yl]carbonyl}-5-methyl-L-prolyl]-6-ethyl-4,7-diazaspiro[2.5]octane]"
5,≥ 50%,"CC[C@@H]1CNC2(CC2)CN1C(=O)[C@@H]1CC[C@@H](C)N1C(=O)C1=C(C(C)C)N2C(=N[C@@](C)(c3ccc(Cl)nc3)[C@H]2c2ccc(Cl)c(F)c2)S1 [Example 59, (6R)-7-[(5R)-1-{[(5R,6S)-5-(4-chloro-3-fluorophenyl)-6-(6-chloropyridin-3-yl)-3-isopropyl-6-methyl-5,6-dihydroimidazo[2,1-b][1,3]thiazol-2-yl]carbonyl}-5-methyl-L-prolyl]-6-ethyl-4,7-diazaspiro[2.5]octane]"
6,≥ 50%,"CC(C)C1=C(C(=O)N2[C@H](C)CC[C@H]2C(=O)N2CC3(CC3)N(C(=O)C(F)(F)F)C[C@@H]2C)SC2=N[C@@](C)(c3ccc(Cl)nc3)[C@@H](c3ccc(Cl)c(F)c3)N21 [Example 60, (6S)-7-[(5R)-1-{[(5R, 6S)-5-(4-chloro-3-fluorophenyl)-6-(6-chloropyridin-3-yl)-3-isopropyl-6-methyl-5,6-dihydroimidazo[2,1-b][1,3]thiazol-2-yl]carbonyl}-5-methyl-L-prolyl]-6-methyl-4-(trifluoroacetyl)-4,7-diazaspiro[2.5]octane]"

# Further lines, the molecule ahead of its results:
row,SMILES,remaining at 0.5 h
1,"CC(C)C1=C(C(=O)N2[C@H](CF)CC[C@H]2C(=O)N2CCN(C)C3(CC3)C2)SC2=N[C@@](C)(c3ccc(Cl)nc3)[C@@H](c3ccc(Cl)c(F)c3)N21 [Example 41, 7-[(5S)-1-{[(5R,6S)-5-(4-chloro-3-fluorophenyl)-6-(6-chloropyridin-3-yl)-3-isopropyl-6-methyl-5,6-dihydroimidazo[2,1-b][1,3]thiazol-2-yl]carbonyl}-5-(fluoromethyl)-L-prolyl]-4-methyl-4,7-diazaspiro[2.5]octane]",≥ 50%
2,"CC(C)C1=C(C(=O)N2C(=O)CC[C@H]2C(=O)N2CCNC3(CC3)C2)SC2=N[C@@](C)(c3ccc(Cl)cc3)[C@@H](c3ccc(Cl)cc3)N21 [Example 42, (5S)-1-{[(5R,6S)-5,6-bis(4-chlorophenyl)-3-isopropyl-6-methyl-5,6-dihydroimidazo[2,1-b][1,3]thiazol-2-yl]carbonyl}-5-(4,7-diazaspiro[2.5]oct-7-ylcarbonyl)pyrrolidin-2-one]",≥ 50%
3,"CC(C)C1=C(C(=O)N2C(=O)CC[C@H]2C(=O)N2CCNC3(CC3)C2)SC2=N[C@@](C)(c3ccc(Cl)nc3)[C@@H](c3ccc(Cl)c(F)c3)N21 [Example 44, (5S)-1-{[(5R,6S)-5-(4-chloro-3-fluorophenyl)-6-(6-chloropyridin-3-yl)-3-isopropyl-6-methyl-5,6-dihydroimidazo[2,1-b][1,3]thiazol-2-yl]carbonyl}-5-(4,7-diazaspiro[2.5]oct-7-ylcarbonyl)pyrrolidin-2-one]",≥ 50%
4,"CC(=O)N1CCN(C(=O)[C@@H]2CCC(=O)N2C(=O)C2=C(C(C)C)N3C(=N[C@@](C)(c4ccc(Cl)nc4)[C@H]3c3ccc(Cl)c(F)c3)S2)CC12CC2 [Example 45, (5S)-5-[(4-acetyl-4,7-diazaspiro[2.5]oct-7-yl)carbonyl]-1-{[(5R,6S)-5-(4-chloro-3-fluorophenyl)-6-(6-chloropyridin-3-yl)-3-isopropyl-6-methyl-5,6-dihydroimidazo[2,1-b][1,3]thiazol-2-yl]carbonyl}pyrrolidin-2-one]",≥ 50%
5,"CCN(C(=O)C1=C(C(C)C)N2C(=N[C@@](C)(c3ccc(Cl)cc3)[C@H]2c2ccc(Cl)cc2)S1)C1(C(=O)N2CCNC3(CC3)C2)CC1 [Example 50, (5R,6S)-5,6-bis(4-chlorophenyl)-N-[1-(4,7-diazaspiro[2.5]oct-7-ylcarbonyl)cyclopropyl]-N-ethyl-3-isopropyl-6-methyl-5,6-dihydroimidazo[2,1-b][1,3] thiazole-2-carboxamide]",≥ 50%
6,"CCN(C(=O)C1=C(C(C)C)N2C(=N[C@@](C)(c3ccc(Cl)cc3)[C@H]2c2ccc(Cl)c(F)c2)S1)C1(C(=O)N2CCNC3(CC3)C2)CC1 [Example 52, (5R,6S)-5-(4-chloro-3-fluorophenyl)-6-(4-chlorophenyl)-N-[1-(4,7-diazaspiro[2.5]oct-7-ylcarbonyl)cyclopropyl]-N-ethyl-3-isopropyl-6-methyl-5,6-dihydroimidazo[2,1-b][1,3]thiazole-2-carboxamide]",≥ 50%
7,"CCN(C(=O)C1=C(C(C)C)N2C(=N[C@@](C)(c3ccc(Cl)nc3)[C@H]2c2ccc(Cl)c(F)c2)S1)C1(C(=O)N2CCNC3(CC3)C2)CC1 [Example 53, (5R,6S)-5-(4-chloro-3-fluorophenyl)-6-(6-chloropyridin-3-yl)-N-[1-(4,7-diazaspiro[2.5]oct-7-ylcarbonyl)cyclopropyl]-N-ethyl-3-isopropyl-6-methyl-5,6-dihydroimidazo[2,1-b][1,3]thiazole-2-carboxamide]",≥ 50%
8,"CCN(C(=O)C1=C(C(C)C)N2C(=N[C@@](C)(c3ccc(Cl)cc3)[C@H]2c2ccc(Cl)cc2)S1)[C@@H](C)C(=O)N1CCNC2(CC2)C1 [Example 54, (5R,6S)-5,6-bis(4-chlorophenyl)-N-[(1S)-2-(4,7-diazaspiro[2.5]oct-7-yl)-1-methyl-2-oxoethyl]-N-ethyl-3-isopropyl-6-methyl-5,6-dihydroimidazo[2,1-b][1,3]thiazole-2-carboxamide]",≥ 50%
